According to PubChem BioAssay (NCI):
Where “and” joins values, the source holds several entries; their conditions need not be identical. Identical values can stand only once.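 Results reflect a 48-hour exposure of cells in 96-well plates to compound at five concentrations. Here, GI50 denotes the concentration required for 50% inhibition of growth. The concentration for full growth arrest is given as TGI.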

Columns and labels:
Experiment in all cases: NCI anticancer screen, dose series, 48 h
[1] = test system: ACHN renal
[2] = test system: HCT-15 colon
[3] = test system: HOP-62 NSCLC
[4] = test system: K-562 leukemia
[5] = test system: MOLT-4 leukemia
[6] = test system: NCI-H522 lung
[7] = test system: SK-MEL-28 melanoma
[8] = test system: UO-31 renal

Compound | GI50 [1] | TGI [1] | GI50 [2] | TGI [2] | GI50 [3] | TGI [3] | GI50 [4] | TGI [4] | GI50 [5] | TGI [5] | GI50 [6] | GI50 [7] | TGI [7] | GI50 [8] | TGI [8] | TGI [6]
COc1ccc(/C=C\c2cc(OC)c(OC)c(OC)c2)cc1OC(=O)c1cccc(Cn2cc(CCOC(=O)c3cccc(Cn4nnc5c4C(=O)c4ccccc4C5=O)c3)nn2)c1 | 0.0153 µM | > 84.5 µM | < 0.01 µM | > 100 µM | 0.0381 µM | 27 µM | < 0.01 µM | > 100 µM | 0.0129 µM | > 100 µM | 0.0102 µM | 11.7 µM | > 75.7 µM | 0.16 µM | 79.5 µM | –
NC(=O)C(NC=O)c1ccccc1 (stereo unspecified) | – | > 100 µM | – | > 100 µM | – | > 100 µM | – | > 100 µM | – | > 100 µM | – | – | > 100 µM | – | > 100 µM | > 100 µM
C=C(C)[C@@H]1CCC2=C[C@@H](OC2=O)[C@@H](C(=C)C)C(=O)/C=C(/C)C(=O)C1 | 37.3 µM | > 100 µM | 24.1 µM | 69.7 µM | 36.2 µM | > 100 µM | 18.7 µM | > 100 µM | 14 µM | 47 µM | 34.4 µM | 34.8 µM | 87.5 µM | 42.2 µM | > 100 µM | > 100 µM
CCOC(=O)C1=C(C)NC2SC(=O)/C(=C\c3ccccc3)N2C1c1ccccc1 (stereo unspecified) | > 100 µM | > 100 µM | > 100 µM | > 100 µM | > 100 µM | > 100 µM | 51.8 µM | > 100 µM | – | – | > 100 µM | > 100 µM | > 100 µM | > 100 µM | > 100 µM | > 100 µM
COc1cc(C2CC(c3cc(C)ccc3C)=NN2c2ccc(S(=O)(=O)NC(=O)NCc3ccccc3)cc2)cc(OC)c1OC (stereo unspecified) | 3.47 µM | 13.2 µM | 3.18 µM | > 100 µM | 4.3 µM | 37.1 µM | 4 µM | 34.1 µM | 3.24 µM | 25.2 µM | 3.55 µM | 2.26 µM | 5.5 µM | 3.56 µM | 15.6 µM | 21.6 µM
COc1cc([C@@H]2c3cc4c(cc3[C@H](O)[C@H]3COC(=O)[C@H]23)OCO4)cc(OC)c1OC | < 0.01 µM | > 100 µM and 50 µM | < 0.005 µM | > 100 µM and 50 µM | < 0.005 µM | > 100 µM and 50 µM and > 75 µM | < 0.01 µM | > 100 µM and 50 µM | < 0.01 µM | – | < 0.01 µM | < 0.01 µM | > 100 µM and 50 µM | < 0.005 µM | > 100 µM and 50 µM and 42.7 µM | < 0.01 µM
COc1cccc(C2NC(=S)NC(C)=C2C(=O)Nc2ccc(F)c(Cl)c2)c1 (stereo unspecified) | 23.8 µM | > 50 µM | 23.7 µM | > 50 µM | > 50 µM | > 50 µM | 12.6 µM | 49.2 µM | – | – | 20.8 µM | – | – | 20.4 µM | > 50 µM | > 50 µM
CC1OC(OC2CC(O)C3(CO)C4C(O)CC5(C)C(C6=CC(=O)OC6)CCC5(O)C4CCC3(O)C2)C(O)C(O)C1O (stereo unspecified) | 0.01 µM | 0.0191 µM | < 0.0133 µM | 0.024 µM | < 0.0112 µM | < 0.0146 µM | < 0.0198 µM | – | < 0.0123 µM | 1.78 µM | < 0.0147 µM | 0.0646 µM | 0.251 µM | < 0.0124 µM | 0.0198 µM | < 0.0312 µM
COc1cccc(C2C3=C(COC3=O)N(CCO)c3cc4c(cc32)OCCO4)c1 (stereo unspecified) | 0.769 µM | > 50 µM | 0.21 µM | > 50 µM | 0.287 µM | > 50 µM | 0.0827 µM | > 50 µM | 0.195 µM | – | 0.00807 µM | > 50 µM | > 50 µM | 0.268 µM | > 15.6 µM | 0.0208 µM
CC[CH2][Sn]([Cl])([Cl])[CH2]CC | 6.88 µM | 20 µM | 11.3 µM | 25.5 µM | 16.6 µM | 31.3 µM | 3.33 µM | > 100 µM | 5.35 µM | > 100 µM | 0.354 µM | 11.4 µM | 23.7 µM | 4.47 µM | 19.5 µM | 1.62 µM
CNc1ccc(-c2cc(=O)oc3ccc(Cl)cc23)cc1 | 0.104 µM and 0.0558 µM | > 100 µM | 0.0421 µM | – | 0.0696 µM and 0.169 µM | > 100 µM | 0.0312 µM and 0.0363 µM | > 100 µM | 0.108 µM and 0.0626 µM | 50.1 µM | 0.03 µM | 2.08 µM | > 100 µM | 0.417 µM and 0.501 µM | > 100 µM | 0.311 µM
COC(=O)Nc1nc2cc3c(cc2s1)OCCO3 | > 50 µM | > 50 µM | > 50 µM | > 50 µM | > 50 µM | > 50 µM | > 50 µM | > 50 µM | > 50 µM | > 50 µM | > 50 µM | > 50 µM | > 50 µM | > 50 µM | > 50 µM | > 50 µM
CN(C)CCN=Cc1c2ccccc2c(=O)n2c1oc1ccccc12 | 2.63 µM | 11.2 µM | 5.37 µM | 22.1 µM | 12.1 µM | 26.7 µM | 11 µM | > 100 µM | 4.2 µM | > 100 µM | 16.5 µM | 10.5 µM | 23.1 µM | 6.67 µM | 28.6 µM | 38 µM
OC(COc1cccc2ccccc12)CN1CCN(c2ccccc2)CC1 (stereo unspecified) | 16.2 µM | 30.6 µM | 18.8 µM | 35.7 µM | 13.4 µM | 26.8 µM | 13.7 µM | 34 µM | 16.3 µM | 56.3 µM | 14.4 µM | 17 µM | 31.6 µM | 5.94 µM | 20.4 µM | 29.2 µM
COc1ccc(-c2cc(/C=C3\C(=O)Nc4ccc(OC)cc43)[nH]n2)cc1 | > 100 µM | > 100 µM | 0.687 µM | > 100 µM | 10.6 µM | > 100 µM | 0.479 µM | > 100 µM | > 100 µM | > 100 µM | 11 µM | > 100 µM | > 100 µM | > 100 µM | > 100 µM | > 100 µM
